Measured values from ChEMBL document CHEMBL1143353, “Pyrazolo[1,5-a]-1,3,5-triazine as a purine bioisostere: access to potent cyclin-dependent kinase inhibitor (R)-roscovitine analogue” (J Med Chem, 2009).
pIC50: −log10 of the molar value.

Experiments:
[1] = biological target: Cyclin-dependent kinase 7/ cyclin H (Homo sapiens, UniProt P50613); experiment: Inhibition of human recombinant CDK7/cyclin H expressed in baculovirus-infected insect cells
[2] = test system: SH-SY5Y; experiment: Antiproliferative activity against human SH-SY5Y cells after 48 hrs by MTS reduction assay; assay type: functional, cell-based
[3] = biological target: Cyclin-dependent kinase 2 (Homo sapiens, UniProt P24941); experiment: Inhibition of human recombinant CDK2/cyclin A expressed in baculovirus-infected insect cells
[4] = biological target: Cyclin-dependent kinase 5/CDK5 activator 1 (Homo sapiens, UniProt Q00535)
Description: Inhibition of human recombinant CDK5/p25 expressed in Escherichia coli

[5] = biological target: CDK9/cyclin T1 (Homo sapiens, UniProt P50750); experiment: Inhibition of human recombinant CDK9/cyclin T expressed in baculovirus-infected insect cells
[6] = test system: HEK293; experiment: Antiproliferative activity against human HEK293 cells after 48 hrs by MTS reduction assay; assay type: cell-based; conditions: HEK293, 48 h
[7] = Inhibition of starfish oocytes CDK1/cyclin B; set-up: species or system Marthasterias glacialis; conditions: oocyte

Chain of Cyclin-dependent kinase 5/CDK5 activator 1 (Q00535 whole entry): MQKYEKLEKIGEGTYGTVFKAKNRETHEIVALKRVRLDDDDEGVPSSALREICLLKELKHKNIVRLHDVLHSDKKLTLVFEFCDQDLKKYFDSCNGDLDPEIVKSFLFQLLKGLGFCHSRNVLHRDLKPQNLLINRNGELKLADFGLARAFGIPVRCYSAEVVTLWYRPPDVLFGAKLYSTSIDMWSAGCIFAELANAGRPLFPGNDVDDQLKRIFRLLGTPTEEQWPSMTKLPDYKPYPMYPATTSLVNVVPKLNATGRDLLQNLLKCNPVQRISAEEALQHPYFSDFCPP
Chain of Cyclin-dependent kinase 5/CDK5 activator 1 (Q15078 whole entry, further chain): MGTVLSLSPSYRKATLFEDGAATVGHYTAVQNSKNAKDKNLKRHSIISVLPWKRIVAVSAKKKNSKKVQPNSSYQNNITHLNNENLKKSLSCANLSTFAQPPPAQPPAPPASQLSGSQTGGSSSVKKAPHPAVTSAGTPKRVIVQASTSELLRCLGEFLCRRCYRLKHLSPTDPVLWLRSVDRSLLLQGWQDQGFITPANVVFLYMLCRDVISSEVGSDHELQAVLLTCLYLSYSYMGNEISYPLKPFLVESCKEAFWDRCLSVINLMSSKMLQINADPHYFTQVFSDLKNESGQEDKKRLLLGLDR
Chain of Cyclin-dependent kinase 7/ cyclin H (P51946 whole entry): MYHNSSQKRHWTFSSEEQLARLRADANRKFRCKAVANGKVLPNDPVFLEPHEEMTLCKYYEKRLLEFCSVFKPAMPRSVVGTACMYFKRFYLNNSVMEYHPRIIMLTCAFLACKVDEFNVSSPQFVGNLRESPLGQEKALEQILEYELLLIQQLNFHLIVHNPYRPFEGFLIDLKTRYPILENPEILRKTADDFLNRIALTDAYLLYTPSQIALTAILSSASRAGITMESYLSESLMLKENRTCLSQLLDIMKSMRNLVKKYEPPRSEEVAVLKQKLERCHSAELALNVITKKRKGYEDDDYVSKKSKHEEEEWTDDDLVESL
Chain of Cyclin-dependent kinase 7/ cyclin H (P50613 whole entry): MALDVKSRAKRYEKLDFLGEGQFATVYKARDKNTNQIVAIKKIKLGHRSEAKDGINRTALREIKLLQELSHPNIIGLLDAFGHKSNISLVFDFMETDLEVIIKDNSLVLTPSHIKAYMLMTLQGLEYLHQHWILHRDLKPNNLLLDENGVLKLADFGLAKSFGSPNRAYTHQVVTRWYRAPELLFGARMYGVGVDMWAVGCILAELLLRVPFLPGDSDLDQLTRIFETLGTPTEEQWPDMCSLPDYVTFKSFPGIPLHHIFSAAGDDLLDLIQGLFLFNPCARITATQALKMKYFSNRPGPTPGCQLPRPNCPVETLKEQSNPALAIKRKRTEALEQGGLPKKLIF
Chain of CDK9/cyclin T1 (O60563 whole entry): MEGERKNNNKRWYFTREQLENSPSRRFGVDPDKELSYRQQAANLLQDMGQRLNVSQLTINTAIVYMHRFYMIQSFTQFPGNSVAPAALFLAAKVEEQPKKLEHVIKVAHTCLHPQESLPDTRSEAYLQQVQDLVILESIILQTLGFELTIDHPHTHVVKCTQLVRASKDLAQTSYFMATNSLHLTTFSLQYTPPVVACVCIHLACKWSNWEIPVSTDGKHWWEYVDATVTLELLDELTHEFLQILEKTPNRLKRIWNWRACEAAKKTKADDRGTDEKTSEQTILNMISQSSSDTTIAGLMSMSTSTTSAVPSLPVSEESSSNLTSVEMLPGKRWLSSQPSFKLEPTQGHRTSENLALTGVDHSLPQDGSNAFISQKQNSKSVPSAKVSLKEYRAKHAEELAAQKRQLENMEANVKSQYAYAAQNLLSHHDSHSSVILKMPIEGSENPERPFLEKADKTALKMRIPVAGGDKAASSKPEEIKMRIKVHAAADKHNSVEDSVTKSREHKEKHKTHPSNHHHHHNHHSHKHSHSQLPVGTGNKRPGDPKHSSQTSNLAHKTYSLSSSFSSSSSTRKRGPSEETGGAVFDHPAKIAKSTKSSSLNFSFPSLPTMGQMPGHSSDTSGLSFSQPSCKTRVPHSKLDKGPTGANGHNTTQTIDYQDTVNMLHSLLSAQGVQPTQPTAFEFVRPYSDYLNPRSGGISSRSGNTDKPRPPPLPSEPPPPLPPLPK
Chain of CDK9/cyclin T1 (P50750 whole entry): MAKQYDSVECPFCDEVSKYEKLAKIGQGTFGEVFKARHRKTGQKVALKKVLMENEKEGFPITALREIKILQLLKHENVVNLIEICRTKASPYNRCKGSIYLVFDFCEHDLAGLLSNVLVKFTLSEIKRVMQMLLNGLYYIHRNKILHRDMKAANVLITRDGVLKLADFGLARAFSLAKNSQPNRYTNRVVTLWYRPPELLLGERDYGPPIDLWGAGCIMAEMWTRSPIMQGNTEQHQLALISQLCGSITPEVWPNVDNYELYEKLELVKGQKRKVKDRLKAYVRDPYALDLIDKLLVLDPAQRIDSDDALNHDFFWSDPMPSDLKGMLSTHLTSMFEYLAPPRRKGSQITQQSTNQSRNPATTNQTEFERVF

SMILES	pIC50 [1]	pIC50 [2]	pIC50 [3]	pIC50 [4]	pIC50 [5]	pIC50 [6]	pIC50 [7]
CC[C@H](CO)Nc1nc(NCc2ccccc2)c2ncc(C(C)C)n2n1	6.22	4.81	6.66	6.49	6.70	4.57	6.40
CC[C@@H](CO)Nc1nc(NCc2ccccc2)n2ncc(C(C)C)c2n1	–	5.70	–	6.89	–	5.14	–
